From US9701709B2 (REATA PHARMACEUTICALS, INC., priority 2012, dated 2017)

Columns and labels:
[1] = tested on: NQO1 and HMOX1 protein in SH-SY5Y cells; assay: Western blot of Nrf2 target proteins in SH-SY5Y; type: cell-based, human; conditions: 24 h
Protocol: SH-SY5Y cells were plated in 6-well plates at a density of 4×10^5 cells per well. BV-2 cells were plated in 6-well plates at a density of 2.5×10^4 cells per well. […] Following treatment, cells were washed twice with cold PBS and harvested in lysis buffer. Cells were sonicated and debris was cleared by centrifugation (10 min @ 18,000 rcf, Beckman Coulter, microfuge 18 centrifuge). Total protein in supernatant was quantified using Bio-Rad protein reagent with BSA as a standard. Equal amounts of total cellular protein were separated on SDS-PAGE, and proteins were transferred to nitrocellulose membrane. Membranes were blocked for 1 hour in TBST (1×TBS with 0.1% Tween-20) containing 5% milk, washed 3 times with TBST, and incubated with primary antibodies overnight at 4° C. NQO1 antibody was from Abcam (#AB2346); HMOX1 (HO-1) antibody was from Santa Cruz (#sc-10789); actin antibody was from Millipore (#MAB 1501). After washing with TBST, secondary antibodies were added in TBST+5% milk for 1 h at room temperature. AffiniPure goat anti-rabbit or anti-mouse IgG secondary antibodies were from Jackson ImmunoResearch (catalog #111-035-144 and #115-035-146, respectively). Membranes were washed in TBST, developed using ECL, and exposed to X-ray film. […] HMOX1 protein was not detected in untreated or RTA 408-treated SH-SY5Y cells. […] The same amount of 63170 (54.6 nM) was required.

[2] = tested on: H6PD, PGD, TKT, ME1 mRNA in HCT-116 cells; assay: mRNA of NADPH synthesis genes in HCT-116; type: cell-based; conditions: HCT-116, 10 or 50 nM, 24 h
Protocol: HCT-116 cells were plated in 6-well dishes at a density of 3×10^5 cells/well. […] Each well received the same amount of vehicle. Following treatment, media was removed and cells were harvested using RLT buffer (Qiagen). Lysates were homogenized using QIAShredder columns (Qiagen, Catalog #79654) and RNA was isolated using RNeasy Mini kits (Qiagen, Catalog #74104). For reverse transcription, RNA (1 μg) was combined with Oligo(dT)12-18 primer and H2O in a final volume of 23.25 μL. The mixture was heated to 70° C. for 10 min and then placed on ice. A master mix containing 8 μL 5×1st strand buffer, 2 μL 1 mg/ml BSA, 2 μL 20 mM DTT, 4 μL 5 mM dNTP mix, 0.25 μL RNaseOUTTM and 0.5 μL […]® II reverse transcriptase was added to the RNA mixture and incubated at 42° C. for 1 h. The reaction was inactivated by heating to 70° C. for 10 min. The reaction mixture was diluted 1:3 with H2O prior to use in qPCR. 2.5 μL of the diluted reverse transcription reaction was combined with one set of PCR primers (0.36 μM final concentration), 2× iQTM SYBR® Green Supermix (Bio-Rad, Catalog #170-8885) and H2O to a final volume of 20 pt. Sequences for PCR primers are as follows: Ribosomal protein S9 (RPS9) forward primer [NT] ID NO: 7), reverse primer [NT] ID NO: 8); […] […] The relative abundance of each target gene was determined using the comparative CT method (ΔΔCT). […]

[3] = tested on: aqueous humor protein after paracentesis; assay: Ocular inflammation (paracentesis) in rabbits; type: in vivo, rabbit; conditions: 0.01% RTA 408 in the formulation, instillation
Protocol: Each rabbit was given three instillations within 60 min before induction of paracentesis and two instillations within 30 min after induction of paracentesis. Each instillation was 50 μL and given in both eyes. Aqueous humor for 6 animals per time-point was collected 30 min and again 2 h after induction of paracentesis. The amount of inflammation was determined by protein concentration in the aqueous humor.

[4] = tested on: RANKL-induced osteoclastogenesis in RAW264.7; assay: RANKL-induced osteoclastogenesis (TRAP activity) in RAW264.7; type: cell-based; conditions: Mus musculus, 96 h, 50 ng/mL RANKL, four days, read-out: IC50, RANKL-induced TRAP activity and formation of osteoclasts
Protocol: STAT3 (124H6) and phospho-STAT3 (Tyr705) monoclonal antibodies were from Cell Signaling Technology. Peroxidase-conjugated Affini-pure Goat anti-Rabbit IgG and Peroxidase-conjugated Affini-pure Goat anti-Mouse IgG were from Jackson ImmunoResearch. Osteoclastogenesis is a multi-step differentiation process that results from the binding of RANKL to its receptor, RANK, on cells of hematopoietic origin. […] RAW 264.7 cells were plated in 24-well plates at a density of 5,000 cells/well. […] The treated cells were incubated for four days to allow differentiation into osteoclasts. Differentiation into osteoclasts was assessed by measuring TRAP activity. In brief, 90 μl of conditioned cell culture media was removed from each test well and aliquoted into triplicate wells (30 μL/well) of a 96-well plate. 170 μL of TRAP Assay buffer (Kamiya Biomedical) was then added to each well and the plate was incubated at 37° C. for 3 hours. Following the incubation, absorbance at 540 nm was determined using a Spectramax M2 plate reading spectrophotometer.

Compound: CC1(C)CC[C@]2(NC(=O)C(C)(F)F)CC[C@]3(C)[C@H](C(=O)C=C4[C@@]5(C)C=C(C#N)C(=O)C(C)(C)[C@@H]5CC[C@]43C)[C@@H]2C1 [RTA 408, N-((4aS,6aR,6bS,8aR,12aS,14aR,14bS)-11-cyano-2,2,6a,6b,9,9,12a-heptamethyl-10,14-dioxo-1,2,3,4,4a,5,6,6a,6b,7,8,8a,9,10,12a,14,14a,14b-octadecahydropicen-4a-yl)-2,2-difluoropropanamide]
- NQO1 protein levels [1]: increased NQO1 protein levels in SH-SY5Y cells in a dose-dependent manner
- Expression of genes involved in NADPH synthesis [2]: dose-dependent increase in expression of genes involved in NADPH synthesis
- Aqueous humor protein [3]: reduction in aqueous humor protein similar to that of the highest concentration of any of the other reference compounds
- IC50 [4]: 5 to 10 nM
